# PubChem BioAssay (NCI)
#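 Values below derive from 48-hour exposures of cells grown in 96-well plates, with endpoints linearly interpolated between the two concentrations bracketing the appropriate inhibition level. The concentration for 50% growth inhibition is given as GI50. TGI: concentration producing complete growth inhibition.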
# Experiments:
# Assay in all cases: inhibition of tumour cell growth, NCI panel, 48 h
# NCI-H460 lung = tested on: NCI-H460 lung
# UACC-257 melanoma = tested on: UACC-257 melanoma
# HCC-2998 colon = tested on: HCC-2998 colon
# SNB-75 CNS = tested on: SNB-75 CNS
# KM12 colon = tested on: KM12 colon
# OVCAR-8 ovarian = tested on: OVCAR-8 ovarian
# RXF 393 renal = tested on: RXF 393 renal
# MDA-MB-435 = tested on: MDA-MB-435
# IGROV1 ovarian = tested on: IGROV1 ovarian
# TK-10 renal = tested on: TK-10 renal
# OVCAR-3 ovarian = tested on: OVCAR-3 ovarian
# CAKI-1 renal = tested on: CAKI-1 renal
# A498 renal = tested on: A498 renal
# 786-0 renal = tested on: 786-0 renal
# NCI-H226 lung = tested on: NCI-H226 lung
# PC-3 prostate = tested on: PC-3 prostate
# RPMI-8226 leukemia = tested on: RPMI-8226 leukemia
# CCRF-CEM leukemia = tested on: CCRF-CEM leukemia
# HS 578T breast = tested on: HS 578T breast
# UO-31 renal = tested on: UO-31 renal
# SNB-19 CNS = tested on: SNB-19 CNS
# NCI-H23 lung = tested on: NCI-H23 lung
# HL-60(TB) leukemia = tested on: HL-60(TB) leukemia
# HCT-116 colon = tested on: HCT-116 colon
# T-47D breast = tested on: T-47D breast
# SK-MEL-2 melanoma = tested on: SK-MEL-2 melanoma
# A549 NSCLC = tested on: A549 NSCLC
# HOP-92 NSCLC = tested on: HOP-92 NSCLC
# NCI/ADR-RES ovarian = tested on: NCI/ADR-RES ovarian
# OVCAR-4 ovarian = tested on: OVCAR-4 ovarian
# MCF7 breast = tested on: MCF7 breast
# UACC-62 melanoma = tested on: UACC-62 melanoma
# HCT-15 colon = tested on: HCT-15 colon
# MDA-MB-231 breast = tested on: MDA-MB-231 breast
# SR leukemia = tested on: SR leukemia
# M14 melanoma = tested on: M14 melanoma
# SK-OV-3 ovarian = tested on: SK-OV-3 ovarian
# DU-145 prostate = tested on: DU-145 prostate
# HOP-62 NSCLC = tested on: HOP-62 NSCLC
# BT-549 breast = tested on: BT-549 breast
# NCI-H522 lung = tested on: NCI-H522 lung
# SW-620 colon = tested on: SW-620 colon
# OVCAR-5 ovarian = tested on: OVCAR-5 ovarian
# COLO 205 colon = tested on: COLO 205 colon
# LOX IMVI melanoma = tested on: LOX IMVI melanoma
# SF-539 CNS = tested on: SF-539 CNS
# SF-268 CNS = tested on: SF-268 CNS
# SN12C renal = tested on: SN12C renal
# U251 CNS = tested on: U251 CNS
# SF-295 CNS = tested on: SF-295 CNS
# SK-MEL-5 melanoma = tested on: SK-MEL-5 melanoma
# ACHN renal = tested on: ACHN renal
# MOLT-4 leukemia = tested on: MOLT-4 leukemia
# SK-MEL-28 melanoma = tested on: SK-MEL-28 melanoma
# K-562 leukemia = tested on: K-562 leukemia
# HT29 colon = tested on: HT29 colon
# EKVX NSCLC = tested on: EKVX NSCLC
compound,measurement,setting,value
Oc1ccc(Cl)cc1-c1cc(-c2ccc(Cl)cc2)n[nH]1,GI50,NCI-H460 lung,2.03 µM
same,TGI,NCI-H460 lung,8.15 µM
same,GI50,UACC-257 melanoma,9.92 µM
same,TGI,UACC-257 melanoma,37.7 µM
same,GI50,HCC-2998 colon,1.86 µM
same,TGI,HCC-2998 colon,11.5 µM
same,GI50,SNB-75 CNS,1.44 µM
same,TGI,SNB-75 CNS,10.8 µM
same,GI50,KM12 colon,1.69 µM
same,TGI,KM12 colon,6.21 µM
same,GI50,OVCAR-8 ovarian,3.47 µM
same,TGI,OVCAR-8 ovarian,14.1 µM
same,GI50,RXF 393 renal,6.01 µM
same,TGI,RXF 393 renal,20.8 µM
same,GI50,MDA-MB-435,3.14 µM
same,TGI,MDA-MB-435,14.2 µM
same,GI50,IGROV1 ovarian,1.9 µM
same,TGI,IGROV1 ovarian,15.9 µM
same,GI50,TK-10 renal,3.56 µM
same,TGI,TK-10 renal,12.4 µM
same,GI50,OVCAR-3 ovarian,1.53 µM
same,TGI,OVCAR-3 ovarian,4.59 µM
same,GI50,CAKI-1 renal,1.87 µM
same,TGI,CAKI-1 renal,11.3 µM
same,GI50,A498 renal,10.9 µM
same,TGI,A498 renal,23.9 µM
same,GI50,786-0 renal,2.51 µM
same,TGI,786-0 renal,7.54 µM
same,GI50,NCI-H226 lung,2.87 µM
same,TGI,NCI-H226 lung,24.1 µM
same,GI50,PC-3 prostate,1.78 µM
same,TGI,PC-3 prostate,8.44 µM
same,GI50,RPMI-8226 leukemia,2.11 µM
same,TGI,RPMI-8226 leukemia,7.39 µM
same,GI50,CCRF-CEM leukemia,1.45 µM
same,TGI,CCRF-CEM leukemia,14.5 µM
same,GI50,HS 578T breast,4.13 µM
same,TGI,HS 578T breast,31.6 µM
same,GI50,UO-31 renal,1.38 µM
same,TGI,UO-31 renal,10.1 µM
same,GI50,SNB-19 CNS,2.59 µM
same,TGI,SNB-19 CNS,12.1 µM
same,GI50,NCI-H23 lung,2.03 µM
same,TGI,NCI-H23 lung,6.26 µM
same,GI50,HL-60(TB) leukemia,1.81 µM
same,TGI,HL-60(TB) leukemia,15.8 µM
same,GI50,HCT-116 colon,1.57 µM
same,TGI,HCT-116 colon,2.99 µM
same,GI50,T-47D breast,1.45 µM
same,TGI,T-47D breast,7.73 µM
same,GI50,SK-MEL-2 melanoma,11.3 µM
same,TGI,SK-MEL-2 melanoma,30.1 µM
same,GI50,A549 NSCLC,2.99 µM
same,TGI,A549 NSCLC,13.9 µM
same,GI50,HOP-92 NSCLC,1.18 µM
same,TGI,HOP-92 NSCLC,4.6 µM
same,GI50,NCI/ADR-RES ovarian,2.67 µM
same,TGI,NCI/ADR-RES ovarian,7.92 µM
same,GI50,OVCAR-4 ovarian,0.322 µM
same,TGI,OVCAR-4 ovarian,5.7 µM
same,GI50,MCF7 breast,0.551 µM
same,TGI,MCF7 breast,5.25 µM
same,GI50,UACC-62 melanoma,2.49 µM
same,TGI,UACC-62 melanoma,10.4 µM
same,GI50,HCT-15 colon,0.349 µM
same,TGI,HCT-15 colon,6.31 µM
same,GI50,MDA-MB-231 breast,0.624 µM
same,TGI,MDA-MB-231 breast,6.79 µM
same,GI50,SR leukemia,0.577 µM
same,TGI,SR leukemia,12.3 µM
same,GI50,M14 melanoma,2.72 µM
same,TGI,M14 melanoma,11.6 µM
same,GI50,SK-OV-3 ovarian,2.21 µM
same,TGI,SK-OV-3 ovarian,13.8 µM
same,GI50,DU-145 prostate,3.02 µM
same,TGI,DU-145 prostate,11 µM
same,GI50,HOP-62 NSCLC,1.6 µM
same,TGI,HOP-62 NSCLC,13.6 µM
same,GI50,BT-549 breast,2 µM
same,TGI,BT-549 breast,9.45 µM
same,GI50,NCI-H522 lung,3.26 µM
same,TGI,NCI-H522 lung,12.9 µM
same,GI50,SW-620 colon,2.54 µM
same,TGI,SW-620 colon,11.1 µM
same,GI50,OVCAR-5 ovarian,9.55 µM
same,TGI,OVCAR-5 ovarian,36.5 µM
same,GI50,COLO 205 colon,3.73 µM
same,TGI,COLO 205 colon,15.3 µM
same,GI50,LOX IMVI melanoma,2.02 µM
same,TGI,LOX IMVI melanoma,5.65 µM
same,GI50,SF-539 CNS,3.56 µM
same,TGI,SF-539 CNS,14.7 µM
same,GI50,SF-268 CNS,2.64 µM
same,TGI,SF-268 CNS,15.1 µM
same,GI50,SN12C renal,3.13 µM
same,TGI,SN12C renal,15.5 µM
same,GI50,U251 CNS,3.2 µM
same,TGI,U251 CNS,11.3 µM
same,GI50,SF-295 CNS,3.01 µM
same,TGI,SF-295 CNS,12.8 µM
same,GI50,SK-MEL-5 melanoma,1.35 µM
same,TGI,SK-MEL-5 melanoma,10.2 µM
same,GI50,ACHN renal,2.45 µM
same,TGI,ACHN renal,9.23 µM
same,GI50,MOLT-4 leukemia,2.05 µM
same,TGI,MOLT-4 leukemia,19.5 µM
same,GI50,SK-MEL-28 melanoma,4.46 µM
same,TGI,SK-MEL-28 melanoma,21.2 µM
Nc1nc(CCl)nc(N2CCOCC2)n1,TGI,NCI-H460 lung,41.1 µM
same,TGI,UACC-257 melanoma,> 100 µM
same,TGI,HCC-2998 colon,36.3 µM
same,TGI,SNB-75 CNS,98.6 µM
same,TGI,KM12 colon,> 100 µM
same,TGI,OVCAR-8 ovarian,> 100 µM
same,TGI,RXF 393 renal,> 100 µM
same,TGI,MDA-MB-435,> 100 µM
same,TGI,IGROV1 ovarian,32.6 µM
same,TGI,TK-10 renal,> 100 µM
same,TGI,CAKI-1 renal,30.5 µM
same,TGI,A498 renal,> 100 µM
same,TGI,786-0 renal,29.2 µM
same,TGI,NCI-H226 lung,> 100 µM
same,TGI,PC-3 prostate,> 100 µM
same,TGI,RPMI-8226 leukemia,> 100 µM
same,TGI,CCRF-CEM leukemia,45.7 µM
same,TGI,HS 578T breast,> 100 µM
same,TGI,UO-31 renal,31.6 µM
same,TGI,K-562 leukemia,54.4 µM
same,TGI,SNB-19 CNS,> 100 µM
same,TGI,NCI-H23 lung,35.1 µM
same,TGI,HL-60(TB) leukemia,35.6 µM
same,TGI,HCT-116 colon,66.1 µM
same,TGI,T-47D breast,> 100 µM
same,TGI,SK-MEL-2 melanoma,> 100 µM
same,TGI,A549 NSCLC,> 100 µM
same,TGI,HOP-92 NSCLC,32.2 µM
same,TGI,NCI/ADR-RES ovarian,89.2 µM
same,TGI,OVCAR-4 ovarian,33.4 µM
same,TGI,HT29 colon,> 100 µM
same,TGI,MCF7 breast,> 100 µM
same,TGI,UACC-62 melanoma,31.4 µM
same,TGI,HCT-15 colon,34.9 µM
same,TGI,MDA-MB-231 breast,78.7 µM
same,TGI,SR leukemia,61.8 µM
same,TGI,M14 melanoma,> 100 µM
same,TGI,SK-OV-3 ovarian,> 100 µM
same,TGI,DU-145 prostate,> 100 µM
same,TGI,HOP-62 NSCLC,44.5 µM
same,TGI,BT-549 breast,> 100 µM
same,TGI,NCI-H522 lung,11.1 µM
same,TGI,SW-620 colon,60.4 µM
same,TGI,OVCAR-5 ovarian,47.3 µM
same,TGI,COLO 205 colon,32.5 µM
same,TGI,SF-539 CNS,51.9 µM
same,TGI,SF-268 CNS,> 100 µM
same,TGI,SN12C renal,> 100 µM
same,TGI,EKVX NSCLC,38 µM
same,TGI,U251 CNS,53.9 µM
same,TGI,SF-295 CNS,> 100 µM
same,TGI,SK-MEL-5 melanoma,46.2 µM
same,TGI,ACHN renal,32.5 µM
same,TGI,MOLT-4 leukemia,> 100 µM
same,TGI,SK-MEL-28 melanoma,45.9 µM
